Test results from patent publication US8080644B2, “Oligonucleotide analogues” (Exiqon A/S, priority 1997, dated 2011).
V = bicyclic LNA-type nucleotide of structure V in the publication's (LNA marked in bold); d = 2'-deoxy (DNA)

Experiments:
δ opioid receptor = experiment: Warm water tail flick test, [D-Ala2]deltorphin-induced antinociception; format: in vivo, rats; conditions: 60 μg, i.th, saline-treated controls, 52° C. water
Description: Blockade by Antisense Locked Nucleic Acids (LNA) of [D-Ala2]Deltorphin-Induced Antinociception in the Warm Water Tail Flick Test in Conscious Rats. Male Sprague-Dawley rats (300 g) were implanted with an intrathecal (i.th). polyethylene catheter and allowed to recover for at least 5 days before start of injections (including controls). The antisense LNA compounds (12.5 and 2.5 μg per injection) were administered in a 5 μl volume twice-daily (08.00 and 17.00 h) for 3 days. No signs of non-specific effects or toxicity could be detected, as shown by observations of locomotor behavior and measurements of body weight. The day after the last injection the rats were injected with [D-Ala2]deltorphin (60 μg, i.th) and tested in the warm water (52° C.) tail flick test for δ opioid receptor-mediated antinociception. Data are presented in FIG. 14 as medians based on 6-8 animals per group (data converted to percent maximum possible response, % MPE). Statistical analyses were performed by means of Kruskal-Wallis 1-way ANOVA by ranks, followed by comparisons of treatments versus control.

5′-d(AAAACAAAA)-3′ = experiment: Tm of duplex (spectrophotometric melting curves); format: binding; conditions: vs 5′-d(AAAACAAAA)-3′ (mismatch); 10 mM Na2HPO4 pH 7.0, 100 mM NaCl, 0.1 mM EDTA
Description: (§1) Thermostability of oligonucleotides containing monomers of formula V, X, Y and Z^T, Z^U, Z^G, Z^C, Z^A, Z^MeC. The thermostability of the LNA modified oligonucleotides were determined spectrophotometrically using a spectrophotometer equipped with a thermoregulated Peltier element. Hybridisation mixtures of 1 ml were prepared containing either of 3 different buffers (10 mM Na2HPO4, pH 7.0, 100 mM NaCl, 0.1 mM EDTA; 10 mM Na2HPO4 pH 7.0, 0.1 mM EDTA; 3M tetramethylammoniumchlorid (TMAC), 10 mM Na2HPO4, pH 7.0, 0.1 mM EDTA) and equimolar (1 μM or 1.5 μM) amounts of the different LNA modified oligonucleotides and their complementary or mismatched DNA or RNA oligonucleotides. Identical hybridisation mixtures using the unmodified oligonucleotides were prepared as references. The Tm's were obtained as the first derivative of the melting curves. FIG. 2 illustrates the monomeric LNAs used. The nomenclature V, X, Y and Z^T, Z^U, Z^G, Z^C, Z^A, Z^MeC refer to structures V, X, Y and Z of FIG. 2. In the tables, the nucleobases of the LNA monomers are indicated. Furthermore, for the thio and amino variants of the LNA structure Z of the last two tables, the nomenclature used is, e.g., Z^TS and Z^TNH, respectively.

5′-d(AAAAAAAAAAAAAA)-3′ = experiment: Tm of duplex (spectrophotometric melting curves); format: binding; conditions: vs 5′-d(AAAAAAAAAAAAAA)-3′; 10 mM Na2HPO4 pH 7.0, 100 mM NaCl, 0.1 mM EDTA
Description: as §1

5′-d(AAAAGAAAA)-3′ = experiment: Tm of duplex (spectrophotometric melting curves); format: binding; conditions: vs 5′-d(AAAAGAAAA)-3′ (mismatch); 10 mM Na2HPO4 pH 7.0, 100 mM NaCl, 0.1 mM EDTA
Description: as §1

5′-d(AAAATAAAA)-3′ = experiment: Tm of duplex (spectrophotometric melting curves); format: binding; conditions: vs 5′-d(AAAATAAAA)-3′ (mismatch); 10 mM Na2HPO4 pH 7.0, 100 mM NaCl, 0.1 mM EDTA
Description: as §1

5′-(AAAAAAAAAAAAAA)-3′ = experiment: Tm of duplex (spectrophotometric melting curves); format: binding; conditions: vs RNA 5′-(AAAAAAAAAAAAAA)-3′; 10 mM Na2HPO4 pH 7.0, 100 mM NaCl, 0.1 mM EDTA
Description: as §1

5′-(AAAAAAGAAAAAAA)-3′ = experiment: Tm of duplex (spectrophotometric melting curves); format: binding; conditions: vs RNA 5′-(AAAAAAGAAAAAAA)-3′ (mismatch); 10 mM Na2HPO4 pH 7.0, 100 mM NaCl, 0.1 mM EDTA
Description: as §1

[1] = test system: MCF-7 human breast cancer cells
[2] = test system: human MCF-7 breast cancer cells
Description: To increase the efficiency of LNA-uptake by human MCF-7 cells different transfection agents were tested with various concentrations of 5′FITC-labelled LNAs and DNA.
Three transfection agents were tested: FuGENE-6 (Boehringer Mannheim cat. no. 1 814 443), SuperFect (Quiagen cat. no. 301305) and Lipofectin (GibcoBRL cat. no. 18292-011). […] Three days before the experiments the cells were seeded at a cell density of approx. 0.8×10^4 cells per cm^2. Depending on the type of experiment the MCF-7 cells were seeded in standard T25 flasks (Nunc, LifeTechnologies cat. no. 163371A), 24 wells multidish (Nunc, LifeTechnologies cat. no. 143982A) or slide flasks (Nunc, LifeTechnologies cat. no. 170920A). The experiments were performed when cells were 30-40% confluent. Cellular uptake of LNA and DNA was studied at serum-free conditions, i.e. the normal serum containing DME/F12 medium was removed and replaced with DME/F12 without serum before the transfection-mixture was added to the cells. […] The result of the experiment was evaluated either directly on living cells in culture flasks or in 24 wells multidishes or on cells cultured in slide flasks and fixed in 4% ice-cold PFA. In all cases a Leica DMRB fluorescence microscope equipped with a high resolution CCD camera was used.

[3] = test system: MCF-7 human breast cancer cells; remark: listed apart in the source
[4] = test system: Arabidopsis mRNA, AMV Reverse Transcriptase; experiment: First strand cDNA synthesis priming; format: biochemical; conditions: 42° C., 2 hours, vs anchored poly dT control
Description: First Strand cDNA Synthesis Using Poly dT Primers Containing LNA T monomers. Reactions were set up in order to test the ability of poly dT primers containing LNA T residues to prime 1st strand cDNA synthesis. The following poly dT primers were tested (LNA monomers are in bold): […]
Reactions were set up as follows for each of the primers above: […]
This mix was then heated to 75° C. for 3 min and then allowed to cool at room temperature for at least 10 min.
The following was then added to each of the reactions:
The reactions were incubated at 42° C. for 2 hours. The reactions were then heated at 95° C. for 3 min before loading onto a 6% polyacrylamide 7M urea gel. The gel was fixed in 10% acetic acid/10% methanol before transferring to 3 MM paper and drying. The dried gel was exposed to Kodak Biomax autoradiography film overnight.

Compound: CC(C)[C@H](NC(=O)[C@H](CCC(=O)O)NC(=O)[C@H](Cc1ccccc1)NC(=O)[C@@H](C)NC(=O)[C@@H](N)Cc1ccc(O)cc1)C(=O)N[C@H](C(=O)NCC(=O)O)C(C)C [deltorphin, [D-Ala2]deltorphin]
- antinociceptive effect (δ opioid receptor): robust antinociceptive effect

Compound: 5′-d(TTTTTTTTTT)-3′ (SEQ ID NO: 95): almost fully modified LNA oligomer containing exclusively Z^T (52-56) (LNA Z^T monomers)
- Tm (° C.) Na2HPO4/NaCl/EDTA (5′-d(AAAACAAAA)-3′): 63 °C
- Tm (° C.) Na2HPO4/NaCl/EDTA (5′-d(AAAAAAAAAAAAAA)-3′): 80 °C
- Tm (° C.) Na2HPO4/NaCl/EDTA (5′-d(AAAAGAAAA)-3′): 55 °C
- Tm (° C.) Na2HPO4/NaCl/EDTA (5′-d(AAAATAAAA)-3′): 65 °C
- Tm (° C.) Na2HPO4/NaCl/EDTA (5′-(AAAAAAAAAAAAAA)-3′): 70 °C

Compound: 5′-d(TTTTTTTTTTTTTT)-3′ (SEQ ID NO: 113): fully modified poly-T oligonucleotide of structure V (sugars from the 5' end V13 d1, backbone not given here)
- Tm (° C.) Na2HPO4/NaCl/EDTA (5′-(AAAAAAGAAAAAAA)-3′): 37 °C
- Tm (° C.) Na2HPO4/NaCl/EDTA (5′-d(AAAAAAAAAAAAAA)-3′): <10 °C
- Tm (° C.) Na2HPO4/NaCl/EDTA (5′-(AAAAAAAAAAAAAA)-3′): 42 °C

Compound: AL16: LNA oligo 5′-d(TGT GTG AAA TTG TTA T)-3′ (SEQ ID NO:57); also fluorescein/FITC-labelled (DNA TGTGTGAAATTGTTAT; LNA-containing, positions not given here, fluorescein label)
- added radioactivity associated with cellular material [1]: approximately 0.8%
- intracellular localisation [2]: predominantly was localised in the nuclei of the cells
- number of green fluorescent cells after additional 3 days [3]: appeared unaltered

Compound: RTZ 5: poly dT primer 5′-TTT TTT TTT T-3′ (SEQ ID NO: 69) containing LNA T monomers (TTTTTTTTTT; LNA T monomers)
- priming of 1st strand cDNA synthesis [4]: yield was significantly lower than that produced with the control oligo primer
